The text below walks through data of patent EP4617282A1, “MEMBRANE FUSION INHIBITOR FOR […] VIRUS AND DRUG-RESISTANT STRAIN THEREOF, AND PHARMACEUTICAL USE THEREOF” (Institute Of Pathogen Biology, Chinese Academy Of Medical …, priority 2022, dated 2024).

The test system of test [1] is HIV-1JRFL pseudovirus. Format: cell-based. As to conditions: TZM-b1 cells, 100 TCID50, 48 hours. The source says: (§1) HIV-1JRFL Env expression vectors and backbone plasmas (pSG3 ΔEnv) and TZM-bl cells were described in the following literature: Xue, J., Chong, H., Zhu, Y, Zhang, J., Tong, L., Lu, J., Chen, T., Cong, Z., Wei, Q., He, Y., 2022. Efficient treatment and pre-exposure prophylaxis in rhesus macaques by an HIV fusion-inhibitory lipopeptide. Cell 185, 131-144 e118. The HIV-1JRFL Env expression vector and the backbone plasmas (pSG3 ΔEnv) were co-transfected into HEK293T cells, and the transfected cells were cultured in a cell culture incubator at 37 °C and 5% CO2 for 48 hours, and then the supernatant was collected and filtered to collect the filtrate. The resulting filtrate was a virus solution containing HIV-1JRFL pseudovirus particles (called as HIV-1JRFL virus solution), which was preserved at -80 °C for later use.
Test virus solution: HIV-1NL4-3 virus solution or HIV-1JRFL virus solution. • 1. A test lipopeptide was dissolved in deionized water and then diluted with DMEM medium (using 3-fold dilution) to obtain a lipopeptide diluent. 9 dilutions were set for each test lipopeptide. • 2. In a 96-well plate, the lipopeptide diluent (50 µL/well) was added to drug wells and the DMEM medium (50 µL/well) was added to control wells. Each well was set with three duplicate wells. • 3. After step 2 was finished, a test virus solution (50 µL/well, a virus content of 100 TCID50) was added to the 96-well plate and incubated at room temperature for 30 minutes. • 4. After step 3 was finished, a TZM-b1 cell suspension (100 µL/well) was added to the 96-well plate and cultured for 48 hours in a cell culture incubator at 37 °C and 5% CO2. Preparation method of the TZM-b1 cell suspension: TZM-b1 cells were re-suspended in a DMEM medium and DEAE-dextran was added thereto such that the cell concentration was 10×10^4 cells/mL and the DEAE-dextran concentration was 15 µg/mL. • 5. […] Relative luminescence units (RLU) were measured by a microplate luminometer, an inhibition rate curve was made, and the half-maximal inhibition concentration (IC50) of the drug was calculated. […]

Test [2] has as its system HIV-1NL4-3 pseudovirus. Format: cell-based. Particulars: TZM-b1 cells, 100 TCID50, 48 hours.
Text: as §1
The preparation method of the HIV-1NL4-3 virus solution (i.e., the virus solution containing HIV-1NL4-3 pseudovirus particle) was basically the same as that of the HIV-1JRFL virus liquid, except that the HIV-1JRFL Env expression vector was replaced with HIV-1NL4-3 Env expression vector. […]
Test virus solution: HIV-1NL4-3 virus solution or HIV-1JRFL virus solution. • 1. […] Relative luminescence units (RLU) were measured by a microplate luminometer, an inhibition rate curve was made, and the half-maximal inhibition concentration (IC50) of the drug was calculated. […]

For orientation: IC50 means the point on the concentration scale where inhibition reaches its midpoint. A higher IC50 goes with weaker potency.

Residues, ends and D or L forms follow the SMILES beside them. *: point of attachment. Succinyl(4-O-cholesteryl) = CC(C)CCC[C@@H](C)[C@H]1CC[C@H]2[C@@H]3CC=C4C[C@@H](OC(=O)CCC(=O)*)CC[C@]4(C)[C@H]3CC[C@]12C

In the case of `CC[C@H](C)[C@H](NC(=O)[C@H](CCC(=O)O)NC(C)=O)C(=O)N[C@@H](CCC(=O)O)C(=O)N[C@@H](CCC(=O)O)C(=O)N[C@@H](CC(C)C)C(=O)N[C@@H](CCC(=O)O)C(=O)N[C@@H](CCCCN)C(=O)N[C@@H](CCCCN)C(=O)N[C@H](C(=O)N[C@@H](CCC(=O)O)C(=O)N[C@@H](CCC(=O)O)C(=O)N[C@@H](CC(C)C)C(=O)N[C@@H](CC(C)C)C(=O)N[C@@H](CCCCN)C(=O)N[C@@H](CCCCN)C(=O)N[C@@H](C)C(=O)N[C@@H](CCC(=O)O)C(=O)N[C@@H](CCC(=O)O)C(=O)N[C@@H](CCC(N)=O)C(=O)N[C@@H](CCC(N)=O)C(=O)N[C@@H](CCCCN)C(=O)N[C@@H](CCCCN)C(=O)N[C@@H](CC(N)=O)C(=O)N[C@@H](CCC(=O)O)C(=O)N[C@@H](CCC(=O)O)C(=O)N[C@@H](CCC(=O)O)C(=O)N[C@@H](CC(C)C)C(=O)N[C@@H](CCCCN)C(=O)N[C@@H](CCCCN)C(=O)N[C@@H](CC(C)C)C(=O)N[C@@H](CCC(=O)O)C(=O)N[C@@H](CCCCNC(=O)CCC(=O)O[C@H]1CC[C@@]2(C)C(=CC[C@H]3[C@@H]4CC[C@H]([C@H](C)CCCC(C)C)[C@@]4(C)CC[C@@H]32)C1)C(N)=O)[C@@H](C)CC` [LP-101] (Ac-EIEELEKKIEELLKKAEEQQKKNEEELKKLEK(Succinyl(4-O-cholesteryl))-NH2), half-maximal inhibition in test [1] (IC50) required 2.26 pM. In the case of `CC[C@H](C)[C@H](NC(=O)[C@H](CCCCN)NC(=O)[C@H](CCC(N)=O)NC(=O)[C@H](CCC(=O)O)NC(=O)[C@H](Cc1ccc(O)cc1)NC(C)=O)C(=O)N[C@@H](CCC(=O)O)C(=O)N[C@@H](CCC(=O)O)C(=O)N[C@@H](CC(C)C)C(=O)N[C@@H](CC(C)C)C(=O)N[C@@H](CCCCN)C(=O)N[C@@H](CCCCN)C(=O)N[C@@H](C)C(=O)N[C@@H](CCC(=O)O)C(=O)N[C@@H](CCC(=O)O)C(=O)N[C@@H](CCC(N)=O)C(=O)N[C@@H](CCC(N)=O)C(=O)N[C@@H](CCCCN)C(=O)N[C@@H](CCCCN)C(=O)N[C@@H](CC(N)=O)C(=O)N[C@@H](CCC(=O)O)C(=O)N[C@@H](CCC(=O)O)C(=O)N[C@@H](CCC(=O)O)C(=O)N[C@@H](CC(C)C)C(=O)N[C@@H](CCCCN)C(=O)N[C@@H](CCCCN)C(=O)N[C@@H](CC(C)C)C(=O)N[C@@H](CCC(=O)O)C(=O)N[C@@H](CCCCNC(=O)CCC(=O)O[C@H]1CC[C@@]2(C)C(=CC[C@H]3[C@@H]4CC[C@H]([C@H](C)CCCC(C)C)[C@@]4(C)CC[C@@H]32)C1)C(N)=O` [LP-98, reference compound] (Ac-YEQKIEELLKKAEEQQKKNEEELKKLEK(Succinyl(4-O-cholesteryl))-NH2), the IC50 in test [2] worked out at 1.07 pM; in test [1], 2.58 pM.

On to `CC[C@H](C)[C@H](NC(=O)[C@H](CCCCN)NC(=O)[C@H](CCCCN)NC(=O)[C@H](CCC(=O)O)NC(=O)[C@H](Cc1c[nH]c2ccccc12)NC(=O)[C@H](CCC(=O)O)NC(=O)[C@H](CCC(=O)O)NC(=O)[C@H](Cc1c[nH]c2ccccc12)NC(C)=O)C(=O)N[C@@H](CCC(=O)O)C(=O)N[C@@H](CCC(=O)O)C(=O)N[C@@H](CC(C)C)C(=O)N[C@@H](CCC(=O)O)C(=O)N[C@@H](CCCCN)C(=O)N[C@@H](CCCCN)C(=O)N[C@H](C(=O)N[C@@H](CCC(=O)O)C(=O)N[C@@H](CCC(=O)O)C(=O)N[C@@H](CC(C)C)C(=O)N[C@@H](CC(C)C)C(=O)N[C@@H](CCCCN)C(=O)N[C@@H](CCCCN)C(=O)N[C@@H](C)C(=O)N[C@@H](CCC(=O)O)C(=O)N[C@@H](CCC(=O)O)C(=O)N[C@@H](CCC(N)=O)C(=O)N[C@@H](CCC(N)=O)C(=O)N[C@@H](CCCCN)C(=O)N[C@@H](CCCCN)C(=O)N[C@@H](CC(N)=O)C(=O)N[C@@H](CCC(=O)O)C(=O)N[C@@H](CCC(=O)O)C(=O)N[C@@H](CCC(=O)O)C(=O)N[C@@H](CC(C)C)C(=O)N[C@@H](CCCCN)C(=O)N[C@@H](CCCCN)C(=O)N[C@@H](CC(C)C)C(=O)N[C@@H](CCC(=O)O)C(=O)N[C@@H](CCCCNC(=O)CCC(=O)O[C@H]1CC[C@@]2(C)C(=CC[C@H]3[C@@H]4CC[C@H]([C@H](C)CCCC(C)C)[C@@]4(C)CC[C@@H]32)C1)C(N)=O)[C@@H](C)CC` [LP-104] (Ac-WEEWEKKIEELEKKIEELLKKAEEQQKKNEEELKKLEK(Succinyl(4-O-cholesteryl))-NH2), for which the 50% inhibitory concentration (IC50) in test [2] was 14.5 pM; in test [1], 60.2 pM.
